Consider 1 compound from publication PMC5995184, “Potent anti-leukemic activity of a specific cyclin-dependent kinase 9 inhibitor in mouse models of chronic lymphocytic leukemia” (Oncotarget, 2018).

The subject of data set [1] is human CLL cells and human T cells in NSG spleens. As to the kind of experiment: Human CLL xenograft in NSG mice, oral LDC526. The format is in vivo, mouse. The following applies: for mean weight loss: 75 mg/kg group. The text has this: We and others previously established human CLL xenograft models using NOD/SCID and NSG mice, respectively. We chose to use the NSG model for LDC526 experiments since NSG CLL and concomitant T cell engraftment levels are expected to be higher than in the NOD/SCID model. We intravenously injected PBMCs from n=6 CLL patients into n=57 NSG mice and commenced LDC treatment with a 14 day latency according to the experimental set-up outlined in Figure 3A. To study the effect of doses and treatment duration we chose to administer 50 and 75 mg/kg for three days (NSG transplanted with cells originating from n=3 patients) and for five days (NSG transplanted with cells originating from n=3 additional patients). On experimental days 17 and 21 NSG spleens were harvested and the content of human CLL and T cells was determined by cell counting and flow cytometry (Figure 3B). […] Compared to carrier control treatment, numbers of human CLL cells decreased after 3 and 5 days of LDC526 treatment, respectively. However, statistical significance regarding the reduction of human CLL cell numbers was only achieved at the LDC526 75 mg/kg dose level (Figure 3C). […] In order to determine whether there was differential in vivo LDC526 sensitivity of T cell subsets we performed additional staining for human CD4+ and CD8+ T cells present in the spleens of xenografted NSG mice (Figure 4A). […] In contrast, in mice transplanted with cells of n=2 other CLL patients and receiving LDC526 treatment for 5 days we observed a rising CD4/CD8 ratio with increasing LDC526 doses (Figure 4B). This could mean that CD8+ cytotoxic T cells are more susceptible to longer LDC526 exposure (5 versus 3 days) than CD4+ T cells. However, this differential skew within the T cell compartment could also reflect the heterogeneity of T cells derived from different CLL patients. […] A mean weight loss of 1.8% was detectable in mice of the LDC526 75 mg/kg group (day 16). […] Remarkably, human T cell numbers were already decreased at a lower dose level than human CLL cells.
All mice were bred and housed at the University Hospital Essen animal care facility. TCL1 mice were back-crossed more than 6 generations into the C57BL/6 background and were genotyped as previously described. Age-matched TCL1 wild-type littermates served as controls. Peripheral blood counts were determined with the VetABC analyzer (scil, Viernheim, Germany). Blood smears were Wright-Giemsa stained. For the human CLL xenograft experiments eight to 14-week-old NOD.Cg-Prkdc^scid Il2rg^tm1Wjl/SzJ (NOD/scid/γc^null; NSG) mice were sublethally irradiated (3.25 Gy) 24 hours before transplantation. Freshly isolated 1.0 x 10^8 PBMC suspended in 0.2 ml of RPMI were intravenously transplanted as previously described. For oral administration, LDC526 was diluted in polyethelene glycol (PEG Mn 400, Sigma-Aldrich) and administerd by gavage. Animal experiments were performed in accordance with institutional guidelines approved by the Animal Care Committee of the University Hospital Essen.
LDC526 [(3-((4-(4-fluoro-2-methoxyphenyl)-1,3,5-triazin-2-yl)amino)phenyl)methane-sulfonamide, molecular weight 389,41 g/mol, Figure 1A] was provided as powder (LDC526 synthesis, supplementary methods). For oral gavage administration LDC526 was diluted in polyethelene glycol (PEG Mn 400, Sigma-Aldrich, Munich, Germany) followed by sonication for 3 x 5 minutes with intermediate mixing.
Apoptosis and cell death were determined by using Annexin V (BD Biosciences, Heidelberg, Germany) and 4′,6-Diamidin-2-phenylindol (DAPI, Sigma-Aldrich) staining. Erythrocytes of murine peripheral blood samples were lysed with NH4Cl hypotonic solution. Single cell suspensions of murine spleens were prepared as previously described. Murine cells were stained with antibodies directed against murine CD3 (clone 145-2C11), CD5 (53-7.3) and CD19 (1D3), respectively. […]

The target in another data set is CDK4 (Homo sapiens, UniProt P11802). The experiment in a line: FRET-based LANCE Ultra in vitro enzymatic kinase assay, CDK4. The format is biochemical. As to the method: (§1) IC50 values for CDK inhibitors were determined using the fluorescence resonance energy transfer (FRET)-based LANCE Ultra KinaSelect Ser/Thr kit (Perkin Elmer). Kinase activity and inhibition were measured according to the manufacturer’s instructions and as previously described. […] FRET signals were recorded in a time-resolved manner in a Perkin Elmer EnVision reader. Purified cyclin-kinase pairs were obtained from the following suppliers: Carna Biosciences (CDK1-Cyclin B1, CDK6-Cyclin D3, CDK7-Cyclin H-MAT1), ProQinase (CDK2-Cyclin A) and Invitrogen (CDK9-Cyclin T1).
Chain of CDK4 (P11802 whole entry): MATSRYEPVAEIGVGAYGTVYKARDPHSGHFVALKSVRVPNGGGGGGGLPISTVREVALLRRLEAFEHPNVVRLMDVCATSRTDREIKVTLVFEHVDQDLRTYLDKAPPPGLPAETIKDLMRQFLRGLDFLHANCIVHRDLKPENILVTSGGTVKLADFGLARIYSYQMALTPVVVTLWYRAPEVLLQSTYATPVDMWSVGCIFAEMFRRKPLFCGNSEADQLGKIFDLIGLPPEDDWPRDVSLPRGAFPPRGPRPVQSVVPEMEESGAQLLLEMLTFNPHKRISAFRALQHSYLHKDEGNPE
Chain of CDK4 (P24385 whole entry partner): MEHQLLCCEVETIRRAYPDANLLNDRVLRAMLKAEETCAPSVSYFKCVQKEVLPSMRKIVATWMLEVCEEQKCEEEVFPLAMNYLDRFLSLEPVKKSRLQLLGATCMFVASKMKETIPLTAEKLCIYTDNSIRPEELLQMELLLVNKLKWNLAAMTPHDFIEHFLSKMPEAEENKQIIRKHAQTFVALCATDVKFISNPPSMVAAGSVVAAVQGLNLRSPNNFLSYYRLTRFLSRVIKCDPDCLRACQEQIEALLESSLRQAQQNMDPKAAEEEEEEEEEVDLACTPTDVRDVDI
(§2) Data were analyzed with GraphPad Prism 7 software. Differences were assessed by unpaired or paired Student t tests if not indicated otherwise. Two-sided probabilities of less than 0.05 were considered significant. Nonlinear regression sigmoidal dose-response curve fit was used to determine the IC50 values and to generate graphs.

Data set [2] concerns panel of 219 recombinant kinases. The experiment in a line: Broad in vitro selectivity kinase profiling. The format is biochemical. The following applies: 1 μM LDC526, 219 kinases. As to the method: IC50 values for CDK inhibitors were determined using the fluorescence resonance energy transfer (FRET)-based LANCE Ultra KinaSelect Ser/Thr kit (Perkin Elmer). Kinase activity and inhibition were measured according to the manufacturer’s instructions and as previously described. […] Subsequently, phosporylation was detected by addition of specific europium (Eu)-labeled anti-phospho-antibodies (2 nM), which upon binding to the phospho-peptide give rise to a FRET signal. FRET signals were recorded in a time-resolved manner in a Perkin Elmer EnVision reader. Purified cyclin-kinase pairs were obtained from the following suppliers: Carna Biosciences (CDK1-Cyclin B1, CDK6-Cyclin D3, CDK7-Cyclin H-MAT1), ProQinase (CDK2-Cyclin A) and Invitrogen (CDK9-Cyclin T1). Broad selectivity kinase in vitro profiling with LDC526 was carried out using n=219 recombinant kinases (Millipore/Merck, Darmstadt, Germany).

The target in the next data set is T1, CDK9-Cyclin T1 (Homo sapiens, UniProt P50750).
T1 construct: purchased Invitrogen
T1 sequence (P50750 whole entry): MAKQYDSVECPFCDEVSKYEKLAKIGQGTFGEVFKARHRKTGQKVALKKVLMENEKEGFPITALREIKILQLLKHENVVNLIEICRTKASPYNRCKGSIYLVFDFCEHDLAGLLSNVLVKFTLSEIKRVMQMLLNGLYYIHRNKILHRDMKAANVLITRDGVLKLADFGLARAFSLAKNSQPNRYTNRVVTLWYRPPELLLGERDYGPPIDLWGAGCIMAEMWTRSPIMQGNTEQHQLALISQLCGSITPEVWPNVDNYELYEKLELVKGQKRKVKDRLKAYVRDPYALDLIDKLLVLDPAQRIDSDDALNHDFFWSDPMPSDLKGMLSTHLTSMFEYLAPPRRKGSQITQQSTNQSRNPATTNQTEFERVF
T1 sequence (O60563 whole entry partner): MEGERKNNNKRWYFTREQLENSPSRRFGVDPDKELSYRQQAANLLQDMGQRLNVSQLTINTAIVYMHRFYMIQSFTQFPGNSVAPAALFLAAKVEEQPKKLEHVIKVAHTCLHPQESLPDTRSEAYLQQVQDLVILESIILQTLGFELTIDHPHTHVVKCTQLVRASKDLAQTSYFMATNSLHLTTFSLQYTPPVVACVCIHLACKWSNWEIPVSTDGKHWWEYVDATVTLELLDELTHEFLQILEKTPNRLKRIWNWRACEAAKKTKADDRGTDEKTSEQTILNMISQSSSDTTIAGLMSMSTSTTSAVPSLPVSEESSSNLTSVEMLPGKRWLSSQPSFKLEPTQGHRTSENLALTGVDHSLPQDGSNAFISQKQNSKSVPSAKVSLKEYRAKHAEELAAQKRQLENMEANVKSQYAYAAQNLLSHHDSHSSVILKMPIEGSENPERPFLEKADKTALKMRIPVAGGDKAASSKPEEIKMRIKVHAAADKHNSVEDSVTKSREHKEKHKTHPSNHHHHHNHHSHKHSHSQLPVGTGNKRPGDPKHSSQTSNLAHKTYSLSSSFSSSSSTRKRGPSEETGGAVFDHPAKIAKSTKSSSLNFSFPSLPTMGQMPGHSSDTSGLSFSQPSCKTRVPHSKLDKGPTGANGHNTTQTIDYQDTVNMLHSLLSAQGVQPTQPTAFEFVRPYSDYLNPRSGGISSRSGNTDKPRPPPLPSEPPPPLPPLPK
As to the kind of experiment: FRET-based LANCE Ultra in vitro enzymatic kinase assay, CDK9. Type of data set: biochemical. The following applies: CDK9 versus other CDKs. As to the method: as §1, §2

Setting [3] is: 75 mg/kg, day 21, representative plot.

For `COc1cc(F)ccc1-c1ncnc(Nc2cccc(CS(N)(=O)=O)c2)n1` [LDC526, (3-((4-(4-fluoro-2-methoxyphenyl)-1,3,5-triazin-2-yl)amino)phenyl)methane-sulfonamide], in data set [1] (75 mg/kg for 5 days), the “reduction of human CLL cells in NSG spleens compared to carrier control” value is given as 77%. The compound also returned a mean weight loss in data set [1] (day 16) of 1.8%. Further, the mean weight loss in data set [1] (day 21) turned out to be 3.6%. In data set [1] (setting [3]), the “flow cytometry gate huCD4, NSG spleen T cells” value amounted to 81.2; the “flow cytometry gate huCD8, NSG spleen T cells” value was found to be 14.7; the “flow cytometry gate huCD45+ huCD3, NSG spleen” value was 38.7. Further, the “numbers of splenic human T cells” value in data set [1] (50 and 75 mg/kg, 3 or 5 days) is “significantly reduced at both LDC526 doses”. Besides, the “selectivity versus CDK9 compared to CDK4” value at CDK4 stood at 291 fold. Besides, in data set [2], the “share of tested kinases still displaying an activity of greater than 80%” value is recorded as “More than 85%”. Besides, on CDK9-Cyclin T1, the “selectivity against other CDKs” value is given as “at least 50 fold”.
